Measured values reported in US20040033555A1 (priority 2003, published 2004).
Read-outs that look alike come from different tables or passages of the source.

Tests used:
Phytophthora infestans = assay type: in vivo; details: preventative foliar spray, tomato; for % Disease Area, Photon Imaging: chlorophyll fluorescence; for % Disease Area, Visual Scoring: scored by eye
[1] = system: Erysiphe graminis f sp. hordei; assay: Preventative control of powdery mildew on barley, % disease area by visual scoring and by photon imaging (fluorescein diacetate fluorescence); assay type: in vivo; details: preventative foliar spray; for % Disease Area, Photon Imaging: FDA fluorescence; for % Disease Area, Visual Scoring: scored by eye
Description: Barley plants (Hordeum vulgari, cv. Boone) are cultivated either as single or multiple plants per plant growth unit, typically in a 2.54 cm by 2.54 cm pot of soil. Plants are grown in an environmentally regulated growth chamber at 20° C. and 70% humidity. The plants are approximately 7 days old at the time of application of the plant treatment agent. Single plant units are sprayed with fungicide standards or experimental plant treatment agents to the point of run-off.
Twenty-four hours following application of the plant treatment agent the barley plants are subsequently inoculated with spores of a fungal plant pathogen and incubated under the appropriate conditions for a period sufficient to allow the development of visible disease symptoms.
Inoculation with powdery mildew is with a spore suspension of Erysiphe graminis f. sp. hoerdei, (the causal agent of barley powdery mildew). Powdery mildew-inoculated plants are placed in a dry area for 4 hours following inoculation and are subsequently grown for an additional seven days at 20° C. and 65% humidity. Powdery mildew-infected plants are 15 days old at the time of rating of disease.
For the determination of the % disease area for a sample, a binary image is generated which defined the area of pixels associated with a LGM for each object in the field of view. The percent disease area is calculated by dividing the pixel number for the LGM area by the pixel number for the sample area. For the detection of a LGM endogenous to the plant substrate, an additional step of subtracting the fluorescence area from the total leaf area and then dividing by the total leaf area is required for the percent disease area calculation.
The effectiveness of a plant treatment agent on plants infected with a disease organism is determined by treating the test unit with a pro-LGM and detecting photon emission. Barley plants cultivated as described above are given 125 μL spray applications of a preventative treatment containing 40, 5, 1, 0.4 and 0.2 ppm flusilazole. The plant treatment agent is formulated by resuspending the appropriate amount of the dried compound in 6 μL of DMSO with shaking overnight, followed by the subsequent addition of 570 μL of a 50/50 Acetone/Water-Trem solution, yielding the desired final concentration. The Water-Trem contains 18 drops of the Trem® 014 surfactant (Henkel Corp, Amber, Pa.) per L of water. The formulated plant treatment agent is applied as a foliar spray application. In this example, a microsprayer apparatus (U.S. Patent Application No. 60/172,928) applying a fine aerosol mist from the tip of an ultrasonic nebulizer, with air assist, to a rotating electrostatically charged perpendicular plant target is employed.
Twenty-four hours following application of the plant treatment agent the barley plants are subsequently inoculated with a suspension of powdery mildew (Erysiphe graminis f sp. hordei) spores, and incubated under the appropriate conditions for a period sufficient to allow the development of visible disease symptoms, as described above. Untreated plants are also infected at this time for the production of untreated, infected controls. Untreated, uninfected control plants are also generated in parallel.
Plants to be rated for fungicide activity are first scored visually by eye for % disease coverage. The same samples are subsequently treated with the pro-LGM fluorescein diacetate. The FDA is formulated in a stock solution at 1 mg FDA/mL acetone. A final working solution is formulated which contains 5 μg/mL fluorescein diacetate and 0.005% Trem® 014. The FDA working solution is applied by spraying the sample using a Preval® sprayer (Precision Valve Corporation, Yonkers, N.Y.) with sufficient solution to wet all surfaces. Care must be taken not to allow access of FDA to leaves with cuts or abraded surfaces. […]

Magnaportha grisea = details: 5 ppm, systemic application to media prior to seeding, Eragrostis curvula, M. grisea strain expressing a FP

SMILES: COCC(=O)N(c1c(C)cccc1C)C(C)C(=O)OC (centres unmarked) [Ridomil]
- % Disease Area, Photon Imaging (Phytophthora infestans; 1 ppm): 60%
- % Disease Area, Visual Scoring (Phytophthora infestans; 1 ppm): 53%
- % Disease Area, Photon Imaging (Phytophthora infestans; 5 ppm): 10%
- % Disease Area, Visual Scoring (Phytophthora infestans; 5 ppm): 24%
- % Disease Area, Photon Imaging (Phytophthora infestans; 20 ppm): 2%
- % Disease Area, Visual Scoring (Phytophthora infestans; 20 ppm): 3%

SMILES: C[Si](Cn1cncn1)(c1ccc(F)cc1)c1ccc(F)cc1 [flusilazole]
- % Disease Area, Photon Imaging ([1]; 0.2 ppm): 64%
- % Disease Area, Visual Scoring ([1]; 0.2 ppm): 52%
- % Disease Area, Photon Imaging ([1]; 0.4 ppm): 27%
- % Disease Area, Visual Scoring ([1]; 0.4 ppm): 19%
- % Disease Area, Photon Imaging ([1]; 1 ppm): 24%
- % Disease Area, Visual Scoring ([1]; 1 ppm): 7%
- % Disease Area, Photon Imaging ([1]; 5 ppm): 13%
- % Disease Area, Visual Scoring ([1]; 5 ppm): 1%
- % Disease Area, Photon Imaging ([1]; 40 ppm): 0%
- % Disease Area, Visual Scoring ([1]; 40 ppm): 0%

SMILES: Cc1cccc2sc3nncn3c12 [tricyclazole]
- FP fluorescence relative to untreated, inoculated control (Magnaportha grisea): reduced fluorescence
